Experimental data from patent US10798943B2, “Use of 6-anilino purine derivatives to improve heat stress tolerance of rice seedlings” (SYNGENTA PARTICIPATIONS AG, priority 2016, dated 2020).

Columns and labels:
Format in all cases: in vivo
[1] = tested on: rice seedlings (hybrid rice variety ADT45) under heat stress; assay: Transplant shock stress, visual assessment of damage severity, Kumbakonam trial; settings: for Transplanting shock stress (8th day) / Transplanting shock stress (12th day) / Transplanting shock stress (4th day): Kumbakonam
Description: (§1) Trials were setup in two locations in India to test the effect of compounds of formula I on tolerance of rice seedlings to heat stress during transplantation.
(§2) For each trial, hybrid rice variety ADT45 was sown in seedling boxes. A compound of formula (Ia) was applied by foliar spray in the form of an EC formulation, at various dose rates and seedling growth stages as shown in Table 1.
(§3) Transplanting took place at the […] growth stage. Transplant shock was used as an indicator of tolerance to heat stress, and was measured via visual assessment of damage severity on a scale of 0% (no damage) to 100% (dead plant); observations such as yellowing and leaf tip burning are indicators of damage. Transplant shock was also assessed by measuring NVDI values using a Green Seeker™ crop sensor, which measures the percentage green area. A low transplant shock stress rating and high NVDI rating indicate improved tolerance to transplant shock stress.
(§4) The trial was carried out between 7 May 2015 and 15 Jun. 2015, with transplanting on 29 May 2015. The mean maximum daily temperature during the trial period was 37.3° C., and mean minimum daily temperature during the trial period was 24.9° C. The mean temperature during the entire trial period was 31.1° C.

[2] = tested on: rice seedlings (hybrid rice variety ADT45) under heat stress; assay: Transplant shock stress, visual assessment of damage severity, Ramapuram trial; settings: for Transplanting shock stress (8th day) / Transplanting shock stress (12th day) / Transplanting shock stress (4th day): Ramapuram
Description: as §1, §2, §3
as §4, with “5 Aug.” for “7 May”, “9 Sep.” for “15 Jun.”, “15 Aug.” for “29 May”, “35.3°” for “37.3°”, “23.7°” for “24.9°”, “30.2°” for “31.1°”

rice under heat stress = assay: Yield in 2016 trial (Trial 3)
[3] = treatment 2: 5 g ai/ha, Pigeon-breast
[4] = treatment 2: 5 g ai/ha, Pigeon-breast, scale 0% no damage to 100% dead plant
[5] = treatment 3: 10 g ai/ha, Pigeon-breast
[6] = treatment 4: 20 g ai/ha, Pigeon-breast
[7] = treatment 6: 10 g ai/ha, 2-leaf
[8] = treatment 7: 20 g ai/ha, 2-leaf
[9] = treatment 9: 10 g ai/ha, 3-leaf
[10] = treatment 10: 20 g ai/ha, 3-leaf
[11] = treatment 3: 10 g ai/ha, Sowing
[12] = treatment 5: 10 g ai/ha, 2-leaf
[13] = treatment 7: 10 g ai/ha, 3-leaf

**Q.** With `COc1cccc(Nc2nc(F)nc3[nH]cnc23)c1` [Formula Ia] as the compound, how does the “Tolerance to heat stress / transplant shock stress, comparison of treatments” value ([1]; Kumbakonam trial, treatments 5 and 6 (2-leaf growth stage, 5-10 g ai/ha)) read?
**A.** The value was “giving the best results”.

**Q.** And the “Transplanting shock stress (8th day)” value [1, 3]?
**A.** The value was 35%.

**Q.** What about the “Transplanting shock stress (12th day)” value [1, 3] of the same compound?
**A.** The value was 15%.

**Q.** What about the “Transplanting shock stress (4th day)” value [1, 4] of the same compound?
**A.** The value was 32%.

**Q.** What about the “Transplanting shock stress (4th day)” value [1, 5] of the same compound?
**A.** The value was 38%.

**Q.** What about the “Transplanting shock stress (8th day)” value [1, 5] of the same compound?
**A.** Its value is 32%.

**Q.** What about the “Transplanting shock stress (12th day)” value [1, 5] of the same compound?
**A.** The value was 17%.

**Q.** What about the “Transplanting shock stress (4th day)” value [1, 6] of the same compound?
**A.** The value was 30%.

**Q.** And the “Transplanting shock stress (8th day)” value [1, 6]?
**A.** Its value is 22%.

**Q.** What about the “Transplanting shock stress (12th day)” value [1, 6] of the same compound?
**A.** The value was 13%.

**Q.** What about the “Transplanting shock stress (4th day)” value ([1]; treatment 5: 5 g ai/ha, 2-leaf) of the same compound?
**A.** The value was 15%.

**Q.** And the “Transplanting shock stress (8th day)” value ([1]; treatment 5: 5 g ai/ha, 2-leaf)?
**A.** The value was 13%.

**Q.** And the “Transplanting shock stress (12th day)” value ([1]; treatment 5: 5 g ai/ha, 2-leaf)?
**A.** Its value is 7%.

**Q.** What about the “Transplanting shock stress (4th day)” value [1, 7] of the same compound?
**A.** The value was 30%.

**Q.** What about the “Transplanting shock stress (8th day)” value [1, 7] of the same compound?
**A.** Its value is 22%.

**Q.** And the “Transplanting shock stress (12th day)” value [1, 7]?
**A.** The value was 10%.

**Q.** What about the “Transplanting shock stress (4th day)” value [1, 8] of the same compound?
**A.** The value was 35%.

**Q.** And the “Transplanting shock stress (8th day)” value [1, 8]?
**A.** Its value is 37%.

**Q.** What about the “Transplanting shock stress (12th day)” value [1, 8] of the same compound?
**A.** Its value is 22%.

**Q.** What about the “Transplanting shock stress (4th day)” value ([1]; treatment 8: 5 g ai/ha, 3-leaf) of the same compound?
**A.** The value was 27%.

**Q.** What about the “Transplanting shock stress (8th day)” value ([1]; treatment 8: 5 g ai/ha, 3-leaf) of the same compound?
**A.** Its value is 32%.

**Q.** What about the “Transplanting shock stress (12th day)” value ([1]; treatment 8: 5 g ai/ha, 3-leaf) of the same compound?
**A.** Its value is 17%.

**Q.** And the “Transplanting shock stress (4th day)” value [1, 9]?
**A.** The value was 42%.

**Q.** What about the “Transplanting shock stress (8th day)” value [1, 9] of the same compound?
**A.** Its value is 27%.

**Q.** What about the “Transplanting shock stress (12th day)” value [1, 9] of the same compound?
**A.** The value was 15%.

**Q.** And the “Transplanting shock stress (4th day)” value [1, 10]?
**A.** The value was 45%.

**Q.** And the “Transplanting shock stress (8th day)” value [1, 10]?
**A.** Its value is 37%.

**Q.** And the “Transplanting shock stress (12th day)” value [1, 10]?
**A.** Its value is 25%.

**Q.** And the “Tolerance to heat stress / transplant shock stress, comparison of treatments” value ([2]; Ramapuram trial, treatments 5 and 6 (2-leaf growth stage, 5-10 g ai/ha))?
**A.** Its value is “giving the best results”.

**Q.** And the “Transplanting shock stress (8th day)” value [2, 3]?
**A.** Its value is 12%.

**Q.** And the “Transplanting shock stress (12th day)” value [2, 3]?
**A.** Its value is 13%.

**Q.** And the “Transplanting shock stress (4th day)” value [2, 4]?
**A.** Its value is 4%.

**Q.** What about the “Transplanting shock stress (4th day)” value [2, 5] of the same compound?
**A.** The value was 3%.

**Q.** What about the “Transplanting shock stress (8th day)” value [2, 5] of the same compound?
**A.** The value was 7%.

**Q.** And the “Transplanting shock stress (12th day)” value [2, 5]?
**A.** Its value is 17%.

**Q.** And the “Transplanting shock stress (4th day)” value [2, 6]?
**A.** The value was 4%.

**Q.** And the “Transplanting shock stress (8th day)” value [2, 6]?
**A.** Its value is 8%.

**Q.** And the “Transplanting shock stress (12th day)” value [2, 6]?
**A.** Its value is 20%.

**Q.** What about the “Transplanting shock stress (4th day)” value ([2]; treatment 5: 5 g ai/ha, 2-leaf) of the same compound?
**A.** The value was 0%.

**Q.** And the “Transplanting shock stress (8th day)” value ([2]; treatment 5: 5 g ai/ha, 2-leaf)?
**A.** The value was 2%.

**Q.** What about the “Transplanting shock stress (12th day)” value ([2]; treatment 5: 5 g ai/ha, 2-leaf) of the same compound?
**A.** Its value is 4%.

**Q.** And the “Transplanting shock stress (4th day)” value [2, 7]?
**A.** Its value is 0%.

**Q.** What about the “Transplanting shock stress (8th day)” value [2, 7] of the same compound?
**A.** Its value is 1%.

**Q.** What about the “Transplanting shock stress (12th day)” value [2, 7] of the same compound?
**A.** The value was 7%.

**Q.** And the “Transplanting shock stress (4th day)” value [2, 8]?
**A.** Its value is 9%.

**Q.** What about the “Transplanting shock stress (8th day)” value [2, 8] of the same compound?
**A.** Its value is 8%.

**Q.** And the “Transplanting shock stress (12th day)” value [2, 8]?
**A.** The value was 11%.

**Q.** And the “Transplanting shock stress (4th day)” value ([2]; treatment 8: 5 g ai/ha, 3-leaf)?
**A.** The value was 7%.

**Q.** And the “Transplanting shock stress (8th day)” value ([2]; treatment 8: 5 g ai/ha, 3-leaf)?
**A.** Its value is 12%.

**Q.** What about the “Transplanting shock stress (12th day)” value ([2]; treatment 8: 5 g ai/ha, 3-leaf) of the same compound?
**A.** Its value is 13%.

**Q.** And the “Transplanting shock stress (4th day)” value [2, 9]?
**A.** The value was 13%.

**Q.** And the “Transplanting shock stress (8th day)” value [2, 9]?
**A.** The value was 20%.

**Q.** And the “Transplanting shock stress (12th day)” value [2, 9]?
**A.** Its value is 31%.

**Q.** What about the “Transplanting shock stress (4th day)” value [2, 10] of the same compound?
**A.** The value was 23%.

**Q.** What about the “Transplanting shock stress (8th day)” value [2, 10] of the same compound?
**A.** The value was 37%.

**Q.** What about the “Transplanting shock stress (12th day)” value [2, 10] of the same compound?
**A.** The value was 34%.

**Q.** What about the “Average yield increase compared to UTC” value (rice under heat stress; treatment 2: 5 g ai/ha, Sowing) of the same compound?
**A.** The value was “+2.9%”.

**Q.** What about the “Yield at 14% MC” value (rice under heat stress; treatment 2: 5 g ai/ha, Sowing) of the same compound?
**A.** The value was 6799 kg/ha.

**Q.** And the “Average yield increase compared to UTC” value (rice under heat stress; [11])?
**A.** The value was −0.1%.

**Q.** What about the “Yield at 14% MC” value (rice under heat stress; [11]) of the same compound?
**A.** Its value is 6603 kg/ha.

**Q.** What about the “Average yield increase compared to UTC” value (rice under heat stress; treatment 4: 5 g ai/ha, 2-leaf) of the same compound?
**A.** The value was “+6.2%”.

**Q.** What about the “Yield at 14% MC” value (rice under heat stress; treatment 4: 5 g ai/ha, 2-leaf) of the same compound?
**A.** The value was 7014 kg/ha.

**Q.** And the “Average yield increase compared to UTC” value (rice under heat stress; [12])?
**A.** Its value is “+8.8%”.

**Q.** What about the “Yield at 14% MC” value (rice under heat stress; [12]) of the same compound?
**A.** The value was 7189 kg/ha.

**Q.** What about the “Average yield increase compared to UTC” value (rice under heat stress; treatment 6: 5 g ai/ha, 3-leaf) of the same compound?
**A.** Its value is “+5.6%”.

**Q.** And the “Yield at 14% MC” value (rice under heat stress; treatment 6: 5 g ai/ha, 3-leaf)?
**A.** Its value is 6978 kg/ha.

**Q.** What about the “Average yield increase compared to UTC” value (rice under heat stress; [13]) of the same compound?
**A.** Its value is “+3.3%”.

**Q.** And the “Yield at 14% MC” value (rice under heat stress; [13])?
**A.** The value was 6830 kg/ha.
